Test results from patent US9629363B2, “Pesticidal compositions and processes related thereto” (Dow AgroSciences LLC, priority 2012, dated 2017).

Key:
[1] = system: Beet Armyworm (BAW) (Spodoptera exigua); assay: Bioassay on beet armyworm (BAW), 128-well diet tray assay; format: in vivo; conditions: for pest or weed control at 50 µg/cm2: Spodoptera exigua, Table 3B, beet armyworm, 128-well diet tray assay, read-out: BAW Rating; for BAW Rating: percent mortality of second instar larvae, 50 μg/cm^2 on artificial diet, five to seven days, 25° C.
Description: (§1) Certain molecules disclosed in this document were tested against BAW and CEW and CL using procedures described in the following examples. In the reporting of the results, the “BAW & CEW & CL Rating Table” was used (See Table Section).
Bioassays on BAW were conducted using a 128-well diet tray assay. one to five second instar BAW larvae were placed in each well (3 mL) of the diet tray that had been previously filled with 1 mL of artificial diet to which 50 μg/cm^2 of the test compound (dissolved in 50 μL of 90:10 acetone-water mixture) had been applied (to each of eight wells) and then allowed to dry. Trays were covered with a clear self-adhesive cover, and held at 25° C., 14:10 light-dark for five to seven days. Percent mortality was recorded for the larvae in each well; activity in the eight wells was then averaged. The results are indicated in the table entitled “Table 3: Assay Results” (See Table Section).

[2] = system: Cabbage Looper (CL) (Trichoplusia ni); assay: Bioassay on cabbage looper (CL), 128-well diet tray assay; format: in vivo; conditions: Table 3B, read-out: CL Rating
Description: as §1
Bioassays on CL were conducted using a 128-well diet tray assay. One to five second instar CL larvae were placed in each well (3 mL) of the diet tray that had been previously filled with 1 mL of artificial diet to which 50 μg/cm^2 of the test compound (dissolved in 50 μL of 90:10 acetone-water mixture) had been applied (to each of eight wells) and then allowed to dry. Trays were covered with a clear self-adhesive cover, and held at 25° C., 14:10 light-dark for five to seven days. Percent mortality was recorded for the larvae in each well; activity in the eight wells was then averaged. The results are indicated in the table entitled “Table 3A: Assay Results” (See Table Section).

| SMILES | pest or weed control at 50 µg/cm2 [1] | pest or weed control at 50 µg/cm2 [2] | BAW Rating [1] |
| --- | --- | --- | --- |
| CCC(=O)N(C)NC(=O)c1ccc(/C=C/C(c2cc(Cl)c(Cl)c(Cl)c2)C(F)(F)F)cc1C (stereo not drawn) [FA4] | 50 to 100% | 50 to 100% |  |
| CN(NC(=O)c1ccc(/C=C/C(c2cc(Cl)c(Cl)c(Cl)c2)C(F)(F)F)cc1Br)C(=O)CC(F)(F)F (stereo not drawn) [FA2] | 50 to 100% | 50 to 100% |  |
| CC(C)(CNC(=O)c1ccc(/C=C/C(c2cc(Cl)c(Cl)c(Cl)c2)C(F)(F)F)cc1C(F)(F)F)NC(=O)CC(F)(F)F (stereo not drawn) [FA8] | 50 to 100% | 50 to 100% |  |
| CN(NC(=O)c1ccc(/C=C/C(c2cc(Cl)c(Cl)c(Cl)c2)C(F)(F)F)cc1C(F)(F)F)C(=O)C(F)(F)C(F)(F)C(F)(F)F (stereo not drawn) [FA11] | 50 to 100% | 50 to 100% |  |
| Cc1cc(/C=C/C(c2cc(Cl)c(Cl)c(Cl)c2)C(F)(F)F)ccc1C(=O)NN(C)C(=O)C1CC1 (stereo not drawn) [FA5] | 50 to 100% | 50 to 100% |  |
| CCCC(=O)N(C)NC(=O)c1ccc(/C=C/C(c2cc(Cl)c(Cl)c(Cl)c2)C(F)(F)F)cc1C(F)(F)F (stereo not drawn) [FA12] | 50 to 100% | 50 to 100% |  |
| Cc1cc(/C=C/C(c2cc(Cl)c(Cl)c(Cl)c2)C(F)(F)F)ccc1C(=O)NN(C)C(=O)CCC(F)(F)F (stereo not drawn) [FA6] | 50 to 100% | 50 to 100% |  |
| O=C(NCCc1ccc(Cl)nc1)c1ccc(/C=C/C(c2cc(Cl)c(Cl)c(Cl)c2)C(F)(F)F)cc1Br (stereo not drawn) [AC113] |  |  | B (More than 0-Less than 50) |
| CC(C)(CNC(=O)CC(F)(F)F)NC(=O)c1ccc(/C=C/C(c2cc(Cl)c(Cl)c(Cl)c2)C(F)(F)F)cc1C(F)(F)F (stereo not drawn) [FA16] | 50 to 100% | 50 to 100% |  |
| CC(C)(CNC(=O)c1ccc(/C=C/C(c2cc(Cl)c(Cl)c(Cl)c2)C(F)(F)F)cc1C(F)(F)F)NC(=O)C(F)(F)F (stereo not drawn) [FA9] |  | 0 to 50% |  |
| CN(NC(=O)c1ccc(/C=C/C(c2cc(Cl)c(Cl)c(Cl)c2)C(F)(F)F)cc1C(F)(F)F)C(=O)CCC(F)(F)F (stereo not drawn) [FA13] | 50 to 100% | 50 to 100% |  |
| O=C(NC1CCN(C2COC2)CC1)c1ccc(/C=C/C(c2cc(Cl)c(Cl)c(Cl)c2)C(F)(F)F)cc1Br (stereo not drawn) [AC108, (E)-2-Bromo-N-(1-(oxetan-3-yl)piperidin-4-yl)-4-(4,4,4-trifluoro-3-(3,4,5-trichlorophenyl)but-1-en-1-yl)benzamide] |  |  | B (More than 0-Less than 50) |
| CCNC(=O)NCc1ccc(/C=C/C(c2cc(Cl)cc(Cl)c2)C(F)(F)F)cc1Cl (stereo not drawn) [CC31, (E)-1-(2-Chloro-4-(3-(3,5-dichlorophenyl)-4,4,4-trifluorobut-1-en-1-yl)benzyl)-3-ethylurea] |  |  | B (More than 0-Less than 50) |
| O=C(CC(F)(F)F)NCCNC(=O)c1ccc(/C=C/C(c2cc(Cl)c(Cl)c(Cl)c2)C(F)(F)F)cc1C(F)(F)F (stereo not drawn) [FA7] | 50 to 100% | 50 to 100% |  |
| O=C(CCC(F)(F)F)NNC(=O)c1ccc(/C=C/C(c2cc(Cl)c(Cl)c(Cl)c2)C(F)(F)F)cc1C(F)(F)F (stereo not drawn) [FA14] | 50 to 100% | 50 to 100% |  |
| CN(NC(=O)c1ccc(/C=C/C(c2cc(Cl)c(Cl)c(Cl)c2)C(F)(F)F)cc1C(F)(F)F)C(=O)C1CC1 (stereo not drawn) [FA3] | 50 to 100% | 50 to 100% |  |
| O=C(NCCNC(=O)C(F)(F)F)c1ccc(/C=C/C(c2cc(Cl)c(Cl)c(Cl)c2)C(F)(F)F)cc1C(F)(F)F (stereo not drawn) [FA10] | 50 to 100% | 50 to 100% |  |
| N#CCN1CCC(NC(=O)c2ccc(/C=C/C(c3cc(Cl)c(Cl)c(Cl)c3)C(F)(F)F)cc2Br)CC1 (stereo not drawn) [AC107] |  |  | B (More than 0-Less than 50) |
| FC(F)(F)C(/C=C/c1ccc(-n2cncn2)cc1)c1ccccc1 (stereo not drawn) [DC3] |  |  | B (More than 0-Less than 50) |
| CN(NC(=O)c1ccc(/C=C/C(c2cc(Cl)c(Cl)c(Cl)c2)C(F)(F)F)cc1Br)C(=O)CCC(F)(F)F (stereo not drawn) [FA1] | 50 to 100% | 50 to 100% |  |
| CC(C)(CNC(=O)C(F)(F)F)NC(=O)c1ccc(/C=C/C(c2cc(Cl)c(Cl)c(Cl)c2)C(F)(F)F)cc1C(F)(F)F (stereo not drawn) [FA15] | 50 to 100% | 50 to 100% |  |
